{"source": "patent US5179088A", "about": "“1-Carba(dethia)cephalosporin antibiotics” (Eli Lilly and Company, priority 1990, dated 1993)", "format_in_all_cases": "cell-based", "key": {"Staphylococcus Aureus": {"test_system": "Staphylococcus Aureus", "experiment": "in vitro antibacterial activity, agar dilution (Staphylococcus aureus)", "parameters": "unit not given here", "description": "(§1) *minimum inhibitory concentrations were determined by the Agardilution"}, "Staphylococcus Epi": {"test_system": "Staphylococcus Epi", "experiment": "in vitro antibacterial activity, agar dilution (Staphylococcus epi)", "parameters": "unit not given here", "description": "as §1"}, "Streptococcus A": {"test_system": "Streptococcus A", "experiment": "in vitro antibacterial activity, agar dilution (Streptococcus A)", "parameters": "unit not given here", "description": "as §1"}, "Streptococcus pn": {"test_system": "Streptococcus pn", "experiment": "in vitro antibacterial activity, agar dilution (Streptococcus pn)", "conditions": "strain PARK", "description": "as §1"}, "Streptococcus D": {"test_system": "Streptococcus D", "experiment": "in vitro antibacterial activity, agar dilution (Streptococcus D)", "parameters": "unit not given here", "description": "as §1"}, "H. Influ.": {"test_system": "H. Influ.", "experiment": "in vitro antibacterial activity, agar dilution (H. influ.)", "parameters": "unit not given here", "description": "as §1"}, "E. coli": {"test_system": "E. coli", "experiment": "in vitro antibacterial activity, agar dilution (E. coli)", "parameters": "unit not given here", "description": "as §1"}, "Klebsiella": {"test_system": "Klebsiella", "experiment": "in vitro antibacterial activity, agar dilution (Klebsiella)", "parameters": "unit not given here", "description": "as §1"}, "Enterbacter Aerogenes": {"test_system": "Enterbacter Aerogenes", "experiment": "in vitro antibacterial activity, agar dilution (Enterobacter aerogenes)", "parameters": "unit not given here", "description": "as §1"}, "Enterbacter Cloacea": {"test_system": "Enterbacter Cloacea", "experiment": "in vitro antibacterial activity, agar dilution (Enterobacter cloacae)", "parameters": "unit not given here", "description": "as §1"}, "Salmonella": {"test_system": "Salmonella", "experiment": "in vitro antibacterial activity, agar dilution (Salmonella)", "parameters": "unit not given here", "description": "as §1"}, "Pseudomonas": {"test_system": "Pseudomonas", "experiment": "in vitro antibacterial activity, agar dilution (Pseudomonas)", "parameters": "unit not given here", "description": "as §1"}, "Serratia": {"test_system": "Serratia", "experiment": "in vitro antibacterial activity, agar dilution (Serratia)", "parameters": "unit not given here", "description": "as §1"}, "Proteus morg": {"test_system": "Proteus morg", "experiment": "in vitro antibacterial activity, agar dilution (Proteus morg)", "parameters": "unit not given here", "description": "as §1"}, "Proteus incon": {"test_system": "Proteus incon", "experiment": "in vitro antibacterial activity, agar dilution (Proteus incon)", "parameters": "unit not given here", "description": "as §1"}, "Proteus rett": {"test_system": "Proteus rett", "experiment": "in vitro antibacterial activity, agar dilution (Proteus rett)", "parameters": "unit not given here", "description": "as §1"}, "Citro": {"test_system": "Citro", "experiment": "in vitro antibacterial activity, agar dilution (Citro)", "parameters": "unit not given here", "description": "as §1"}, "Acin": {"test_system": "Acin", "experiment": "in vitro antibacterial activity, agar dilution (Acin)", "parameters": "unit not given here", "description": "as §1"}}, "data": [{"smiles": "CO/N=C(\\C(=O)N[C@@H]1C(=O)N2C(C(=O)O)=C(c3csc(-c4ccc(O)c(O)c4)n3)CC[C@H]12)c1csc(N)n1", "note": "[Example 40, Sodium 7β-[(2-aminothiazol-4-yl)-Z-methoximinoacetylamino]-1-carba-(1-dethia)-3-2-(3,4-dihydroxyphenyl)thiazol-4-yl-3-cephem-4-carboxylate]", "values": [{"measurement": "minimum inhibitory concentration", "setting": "Staphylococcus Aureus; strain S13E", "result": 64}, {"measurement": "minimum inhibitory concentration", "setting": "Staphylococcus Aureus; strain S13E, retest", "result": 64}, {"measurement": "minimum inhibitory concentration", "setting": "Staphylococcus Aureus; strain V41", "result": 16}, {"measurement": "minimum inhibitory concentration", "setting": "Staphylococcus Aureus; strain V41, retest", "result": 8}, {"measurement": "minimum inhibitory concentration", "setting": "Staphylococcus Aureus; strain X1.1", "result": 8}, {"measurement": "minimum inhibitory concentration", "setting": "Staphylococcus Aureus; strain X1.1, retest", "result": 8}, {"measurement": "minimum inhibitory concentration", "setting": "Staphylococcus Aureus; strain X400", "result": "> 128"}, {"measurement": "minimum inhibitory concentration", "setting": "Staphylococcus Aureus; strain X400, retest", "result": "> 128"}, {"measurement": "minimum inhibitory concentration", "setting": "Staphylococcus Epi; strain 222", "result": 16}, {"measurement": "minimum inhibitory concentration", "setting": "Staphylococcus Epi; strain 222, retest", "result": 16}, {"measurement": "minimum inhibitory concentration", "setting": "Staphylococcus Epi; strain 270", "result": 32}, {"measurement": "minimum inhibitory concentration", "setting": "Staphylococcus Epi; strain 270, retest", "result": 16}, {"measurement": "minimum inhibitory concentration", "setting": "Streptococcus A; strain C203", "result": ".06"}, {"measurement": "minimum inhibitory concentration", "setting": "Streptococcus A; strain C203, retest", "result": ".125"}, {"measurement": "minimum inhibitory concentration", "setting": "Streptococcus pn", "result": ".125"}, {"measurement": "minimum inhibitory concentration", "setting": "Streptococcus pn; retest", "result": ".125"}, {"measurement": "minimum inhibitory concentration", "setting": "Streptococcus D; strain 2041", "result": 16}, {"measurement": "minimum inhibitory concentration", "setting": "Streptococcus D; strain 2041, retest", "result": 16}, {"measurement": "minimum inhibitory concentration", "setting": "Streptococcus D; strain X66", "result": "> 128"}, {"measurement": "minimum inhibitory concentration", "setting": "Streptococcus D; strain X66, retest", "result": "> 128"}, {"measurement": "minimum inhibitory concentration", "setting": "H. Influ.; res, strain 76", "result": ".015"}, {"measurement": "minimum inhibitory concentration", "setting": "H. Influ.; res, strain 76, retest", "result": ".03"}, {"measurement": "minimum inhibitory concentration", "setting": "H. Influ.; sens, strain C.L.", "result": ".125"}, {"measurement": "minimum inhibitory concentration", "setting": "H. Influ.; sens, strain C.L., retest", "result": ".125"}, {"measurement": "minimum inhibitory concentration", "setting": "E. coli; strain EC14", "result": ".06"}, {"measurement": "minimum inhibitory concentration", "setting": "E. coli; strain EC14, retest", "result": ".06"}, {"measurement": "minimum inhibitory concentration", "setting": "E. coli; strain N10", "result": ".125"}, {"measurement": "minimum inhibitory concentration", "setting": "E. coli; strain N10, retest", "result": ".125"}, {"measurement": "minimum inhibitory concentration", "setting": "E. coli; strain TEM", "result": ".06"}, {"measurement": "minimum inhibitory concentration", "setting": "E. coli; strain TEM, retest", "result": ".03"}, {"measurement": "minimum inhibitory concentration", "setting": "Klebsiella; strain KAE", "result": 8}, {"measurement": "minimum inhibitory concentration", "setting": "Klebsiella; strain KAE, retest", "result": 4}, {"measurement": "minimum inhibitory concentration", "setting": "Klebsiella; strain X26", "result": ".015"}, {"measurement": "minimum inhibitory concentration", "setting": "Klebsiella; strain X26, retest", "result": ".03"}, {"measurement": "minimum inhibitory concentration", "setting": "Klebsiella; strain X68", "result": ".06"}, {"measurement": "minimum inhibitory concentration", "setting": "Klebsiella; strain X68, retest", "result": ".06"}, {"measurement": "minimum inhibitory concentration", "setting": "Enterbacter Aerogenes; strain C32", "result": ".5"}, {"measurement": "minimum inhibitory concentration", "setting": "Enterbacter Aerogenes; strain C32, retest", "result": ".5"}, {"measurement": "minimum inhibitory concentration", "setting": "Enterbacter Aerogenes; strain EB17", "result": ".03"}, {"measurement": "minimum inhibitory concentration", "setting": "Enterbacter Aerogenes; strain EB17, retest", "result": ".06"}, {"measurement": "minimum inhibitory concentration", "setting": "Enterbacter Cloacea; strain 265A", "result": 64}, {"measurement": "minimum inhibitory concentration", "setting": "Enterbacter Cloacea; strain 265A, retest", "result": 32}, {"measurement": "minimum inhibitory concentration", "setting": "Enterbacter Cloacea; strain EB5", "result": ".25"}, {"measurement": "minimum inhibitory concentration", "setting": "Enterbacter Cloacea; strain EB5, retest", "result": ".25"}, {"measurement": "minimum inhibitory concentration", "setting": "Salmonella; strain 1335", "result": ".06"}, {"measurement": "minimum inhibitory concentration", "setting": "Salmonella; strain 1335, retest", "result": ".06"}, {"measurement": "minimum inhibitory concentration", "setting": "Salmonella; strain X514", "result": ".03"}, {"measurement": "minimum inhibitory concentration", "setting": "Salmonella; strain X514, retest", "result": ".03"}, {"measurement": "minimum inhibitory concentration", "setting": "Pseudomonas; strain PS18", "result": 64}, {"measurement": "minimum inhibitory concentration", "setting": "Pseudomonas; strain PS18, retest", "result": 64}, {"measurement": "minimum inhibitory concentration", "setting": "Pseudomonas; strain PS72, retest", "result": 128}, {"measurement": "minimum inhibitory concentration", "setting": "Pseudomonas; strain X239, retest", "result": 128}, {"measurement": "minimum inhibitory concentration", "setting": "Pseudomonas; strain X528", "result": 8}, {"measurement": "minimum inhibitory concentration", "setting": "Pseudomonas; strain X528, retest", "result": 16}, {"measurement": "minimum inhibitory concentration", "setting": "Serratia; strain SE3", "result": 1}, {"measurement": "minimum inhibitory concentration", "setting": "Serratia; strain SE3, retest", "result": 2}, {"measurement": "minimum inhibitory concentration", "setting": "Serratia; strain X99", "result": ".25"}, {"measurement": "minimum inhibitory concentration", "setting": "Serratia; strain X99, retest", "result": ".125"}, {"measurement": "minimum inhibitory concentration", "setting": "Proteus morg; strain PR15", "result": 4}, {"measurement": "minimum inhibitory concentration", "setting": "Proteus morg; strain PR15, retest", "result": 4}, {"measurement": "minimum inhibitory concentration", "setting": "Proteus incon; strain PR33", "result": ".125"}, {"measurement": "minimum inhibitory concentration", "setting": "Proteus incon; strain PR33, retest", "result": ".25"}, {"measurement": "minimum inhibitory concentration", "setting": "Proteus rett; strain C24", "result": ".125"}, {"measurement": "minimum inhibitory concentration", "setting": "Proteus rett; strain C24, retest", "result": ".25"}, {"measurement": "minimum inhibitory concentration", "setting": "Citro; strain CF17", "result": 4}, {"measurement": "minimum inhibitory concentration", "setting": "Citro; strain CF17, retest", "result": 4}, {"measurement": "minimum inhibitory concentration", "setting": "Acin; strain AC12", "result": 4}, {"measurement": "minimum inhibitory concentration", "setting": "Acin; strain AC12, retest", "result": 2}]}]}
